Test results from a compilation of properties of binary mixtures (doi:10.1021/jp403813g).

Assay: xn = mol fraction of the nth substance listed
Conditions: 100 kPa

CS(C)=O + CCCC[n+]1ccn(C)c1.[Cl-]
speed of sound (313.15 K, x2 = 0): 1442 m/s

CS(C)=O + CC[n+]1ccn(C)c1.[Cl-]
speed of sound (298.15 K, x2 = 0): 1496 m/s | speed of sound (303.15 K, x2 = 0): 1472 m/s

CCCC[n+]1ccn(C)c1.[Cl-] + CS(C)=O
speed of sound (313.15 K, x1 = 0.0341): 1491 m/s | speed of sound (313.15 K, x1 = 0.1122): 1569 m/s | speed of sound (313.15 K, x1 = 0.2433): 1650 m/s | speed of sound (313.15 K, x1 = 0.3032): 1674 m/s | speed of sound (313.15 K, x1 = 0.3705): 1696 m/s | speed of sound (313.15 K, x1 = 0.4746): 1732 m/s | speed of sound (313.15 K, x1 = 0.5997): 1773 m/s | speed of sound (313.15 K, x1 = 0.7115): 1794 m/s | speed of sound (313.15 K, x1 = 0.843): 1816 m/s | speed of sound (313.15 K, x1 = 0.9445): 1829 m/s

CC[n+]1ccn(C)c1.[Cl-] + CS(C)=O
speed of sound (298.15 K, x1 = 0.0453): 1517 m/s | speed of sound (298.15 K, x1 = 0.0677): 1532 m/s | speed of sound (298.15 K, x1 = 0.0984): 1551 m/s | speed of sound (298.15 K, x1 = 0.1236): 1563 m/s | speed of sound (298.15 K, x1 = 0.1619): 1582 m/s | speed of sound (298.15 K, x1 = 0.3737): 1675 m/s | speed of sound (298.15 K, x1 = 0.4429): 1701 m/s | speed of sound (298.15 K, x1 = 0.5264): 1730 m/s | speed of sound (298.15 K, x1 = 0.7986): 1828 m/s | speed of sound (298.15 K, x1 = 0.8944): 1869 m/s | speed of sound (298.15 K, x1 = 0.9396): 1893 m/s | speed of sound (298.15 K, x1 = 0.9694): 1910 m/s | speed of sound (298.15 K, x1 = 1): 1935 m/s | speed of sound (298.15 K, x2 = 0.0071): 1929 m/s | speed of sound (303.15 K, x1 = 0.0677): 1509 m/s | speed of sound (303.15 K, x1 = 0.0984): 1527 m/s | speed of sound (303.15 K, x1 = 0.1236): 1539 m/s | speed of sound (303.15 K, x1 = 0.1619): 1560 m/s | speed of sound (303.15 K, x1 = 0.2143): 1583 m/s | speed of sound (303.15 K, x1 = 0.3737): 1652 m/s | speed of sound (303.15 K, x1 = 0.4429): 1678 m/s | speed of sound (303.15 K, x1 = 0.5264): 1709 m/s | speed of sound (303.15 K, x1 = 0.6072): 1736 m/s | speed of sound (303.15 K, x1 = 0.7477): 1787 m/s | speed of sound (303.15 K, x1 = 0.7986): 1812 m/s | speed of sound (303.15 K, x1 = 0.8501): 1833 m/s | speed of sound (303.15 K, x1 = 0.8944): 1855 m/s | speed of sound (303.15 K, x1 = 0.9396): 1880 m/s | speed of sound (303.15 K, x1 = 0.9694): 1894 m/s | speed of sound (303.15 K, x1 = 1): 1923 m/s | speed of sound (303.15 K, x2 = 0.0071): 1914 m/s | speed of sound (308.15 K, x1 = 0.0194): 1473 m/s | speed of sound (308.15 K, x1 = 0.0453): 1485 m/s | speed of sound (308.15 K, x1 = 0.0677): 1498 m/s | speed of sound (308.15 K, x1 = 0.0984): 1516 m/s | speed of sound (308.15 K, x1 = 0.1236): 1527 m/s | speed of sound (308.15 K, x1 = 0.1619): 1547 m/s | speed of sound (308.15 K, x1 = 0.2143): 1571 m/s | speed of sound (308.15 K, x1 = 0.3737): 1638 m/s | speed of sound (308.15 K, x1 = 0.4429): 1665 m/s | speed of sound (308.15 K, x1 = 0.5264): 1694 m/s | speed of sound (308.15 K, x1 = 0.6072): 1723 m/s | speed of sound (308.15 K, x1 = 0.7477): 1776 m/s | speed of sound (308.15 K, x1 = 0.7986): 1801 m/s | speed of sound (308.15 K, x1 = 0.8501): 1822 m/s | speed of sound (308.15 K, x1 = 0.8944): 1843 m/s | speed of sound (308.15 K, x1 = 0.9396): 1869 m/s | speed of sound (308.15 K, x1 = 0.9694): 1883 m/s | speed of sound (308.15 K, x1 = 1): 1918 m/s | speed of sound (308.15 K, x2 = 0.0071): 1903 m/s | speed of sound (313.15 K, x1 = 0.0194): 1455 m/s | speed of sound (313.15 K, x1 = 0.0677): 1480 m/s | speed of sound (313.15 K, x1 = 0.1236): 1508 m/s | speed of sound (313.15 K, x1 = 0.1619): 1528 m/s | speed of sound (313.15 K, x1 = 0.2143): 1550 m/s | speed of sound (313.15 K, x1 = 0.2927): 1586 m/s | speed of sound (313.15 K, x1 = 0.3737): 1618 m/s | speed of sound (313.15 K, x1 = 0.4429): 1645 m/s | speed of sound (313.15 K, x1 = 0.5264): 1675 m/s | speed of sound (313.15 K, x1 = 0.6072): 1705 m/s | speed of sound (313.15 K, x1 = 0.7477): 1758 m/s | speed of sound (313.15 K, x1 = 0.7986): 1783 m/s | speed of sound (313.15 K, x1 = 0.8501): 1804 m/s | speed of sound (313.15 K, x1 = 0.8944): 1826 m/s | speed of sound (313.15 K, x1 = 0.9396): 1854 m/s | speed of sound (313.15 K, x1 = 0.9694): 1868 m/s | speed of sound (313.15 K, x1 = 1): 1894 m/s | speed of sound (313.15 K, x2 = 0.0071): 1887 m/s
